The data set in a line: Hydrogen Peroxide Oxidation (LC-MS analysis of prochelator conversion). The data set is classed as physicochemical. As to conditions: 2 mM B-HAPI in water/DMSO, addition of 50 μl concentrated (30%) H2O2, room temperature, 1 h, data not shown. On the procedure: Hydrogen Peroxide Oxidation. A 40 mM stock solution of B-HAPI in DMSO was prepared. The reaction mixture (2 mM B-HAPI) was prepared by mixing […] of the B-HAPI stock solution with 450 μl of water and 450 μl of DMSO. The reaction was initiated by addition of 50 μl of concentrated (30%) H2O2 solution. The reaction mixture was incubated at room temperature for 1 h and analyzed by LC-MS.

We go through one molecule from patent US8551976B2, “Prochelators for inhibiting metal-promoted oxidative stress” (Duke University, priority 2011, dated 2013).

As for `C/C(=N\NC(=O)c1ccncc1)c1ccccc1OCc1ccc(B2OC(C)(C)C(C)(C)O2)cc1` [B-HAPI, N′-(1-(2-(4-(4,4,5,5-tetramethyl-1,3,2-dioxaborolan-2-yl)benzyloxy)phenyl)ethylidene)isonitotinohdrazide], the “Hydrogen peroxide oxidation: products formed (LC-MS)” value was “Formation of the chelator (HAPI) and the intermediate of the self-immolative deprotection reaction was observed”.
